Here are results for one compound from the NIST ThermoML archive (doi:10.1016/j.jct.2007.02.009).

The data set is described as follows: Molar enthalpy of transition or fusion. As to conditions: Crystal; Adiabatic calorimetry.

± gives the expanded uncertainty stated by the source.

In the case of `CN(C)C=O` [dimethylformamide], the “Molar enthalpy of transition or fusion” value turned out to be 2.14 ± 0.0311 kcal/mol.
